Measurements taken from US20240309043A1, “THERAPEUTICALLY ACTIVE STEROIDAL DERIVATIVES” (Organon R&D Finland Ltd., priority 2017, published 2024).

Key:
[1] = molecular target: T1, recombinant human 17β-HSD1 (Homo sapiens, UniProt P14061); experiment: Inhibition of recombinant human 17β-HSD1; type: biochemical; settings: inhibitor 100 nM; 30 nM estrone, 1 mM NADPH, 30 min RT
T1 construct: made in house; host or cells: Sd9 (Sf9) insect cells, baculovirus (Bac to Bac Expression System)
T1 sequence (P14061 1-328): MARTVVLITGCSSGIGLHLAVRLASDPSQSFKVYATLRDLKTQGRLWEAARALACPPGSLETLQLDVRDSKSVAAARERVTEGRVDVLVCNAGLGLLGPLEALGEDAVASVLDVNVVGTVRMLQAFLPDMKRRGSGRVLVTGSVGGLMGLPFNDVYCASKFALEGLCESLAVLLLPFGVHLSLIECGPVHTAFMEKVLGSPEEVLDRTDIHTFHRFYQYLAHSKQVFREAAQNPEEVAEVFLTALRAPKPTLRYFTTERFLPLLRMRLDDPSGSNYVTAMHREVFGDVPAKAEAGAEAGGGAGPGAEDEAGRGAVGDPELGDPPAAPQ
Procedure, shortened: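 Microsomes from Sf9 cells expressing human 17β-HSD1 (1 μg/ml) were incubated for 30 min at RT in 20 mM KH2PO4 pH 7.4 with 30 nM ³H-estrone, 1 mM NADPH and inhibitor at 1 μM or 0.1 μM (1% DMSO). Estrone-to-estradiol conversion was measured by radio-HPLC after TCA stop, and % inhibition was taken as 100 − % conversion.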

[2] = molecular target: T2, recombinant human 17β-HSD2 (Homo sapiens, UniProt P37059); experiment: Inhibition of recombinant human 17β-HSD2; type: biochemical; settings: inhibitor 1 μM; 50 nM estradiol, 1 mM NADH, 30 min RT
T2 construct: made in house; host or cells: Sd9 (Sf9) insect cells, baculovirus (Bac to Bac Expression System)
T2 sequence (P37059 1-387): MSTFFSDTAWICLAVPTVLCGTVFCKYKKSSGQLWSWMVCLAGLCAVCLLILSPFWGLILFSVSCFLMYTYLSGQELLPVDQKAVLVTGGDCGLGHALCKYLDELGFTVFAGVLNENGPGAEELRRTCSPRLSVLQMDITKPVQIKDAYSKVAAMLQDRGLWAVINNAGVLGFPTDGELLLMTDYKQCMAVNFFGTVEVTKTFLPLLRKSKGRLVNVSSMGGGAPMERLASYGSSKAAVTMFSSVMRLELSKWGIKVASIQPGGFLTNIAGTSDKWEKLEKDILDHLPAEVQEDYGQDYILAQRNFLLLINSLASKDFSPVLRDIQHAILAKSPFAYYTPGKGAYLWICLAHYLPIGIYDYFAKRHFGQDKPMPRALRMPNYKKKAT
Procedure, shortened: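 Sf9 baculovirus-expressed enzyme membrane extract (4 μg/ml) incubated 30 min at RT in 20 mM KH2PO4 pH 8.5 with 50 nM estradiol (³H-tracer) and 1 mM NADH, inhibitor at 1 μM or 0.1 μM, 1% DMSO. TCA-stopped; estradiol-to-estrone conversion by radio-HPLC, % inhibition = 100 − % conversion.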

[3] = system: HSD1 enzyme that is expressed in rabbit placenta tissue; experiment: Inhibition of E1 to E2 conversion in rabbit placenta tissue homogenate; type: biochemical; settings: inhibitor 100 nM, 30 nM estrone, 30 min
human hepatocytes = experiment: Metabolic stability assay, human hepatocyte incubations; type: in vitro ADME; settings: 37° C., 0-60 min, half life
Procedure: The in vitro metabolic stability of the compounds of the invention was determined for exemplified compounds using human hepatocyte incubations. Study compounds were incubated 0, 10, 20, 40 and 60 min at 37° C. Samples were collected at all time points and compounds were detected by LC-MS/MS analysis. The percent compound remaining is calculated by comparing the peak area of the parent compound at each time point to time zero. In vitro metabolic stability was determined as half life (T½), which was determined by regression analysis of the percent parent disappearance vs. time curve. The results are summarized in Table2.

SMILES	inhibition at 0.1 µM [1] [%]	inhibition at 1 µM [2] [%]	Rabbit placenta inhibition % @100 nM [3] [%]	Human hepatocytes MetStab T1_2 min (human hepatocytes) [min]
COc1ccnc(NC(=O)CC[C@@H]2C/C(=N\O)[C@@]3(C)CCC4c5ccccc5CCC4C23)c1 (stereo partly drawn) [Compound 106, 3-((13S,15R,E)-17-(hydroxyimino)-13-methyl-7,8,9,11,12,13,14,15,16,17-decahydro-6H-cyclopenta[a]phenanthren-15-yl)-N-(4-methoxypyridin-2-yl)propanamide]	76	2	5	31
C[C@]12CCC3c4cccc(F)c4CCC3C1[C@H](CCC(=O)Nc1ccc(N3CCOCC3)cn1)C/C2=N\O (stereo partly drawn) [Compound 114, 3-((13S,15R,E)-4-fluoro-17-(hydroxyimino)-13-methyl-7,8,9,11,12,13,14,15,16,17-decahydro-6H-cyclopenta[a]phenanthren-15-yl)-N-(5-morpholinopyridin-2-yl)propanamide]	100	7	75	40
Cc1cc(NC(=O)CC[C@@H]2C/C(=N\O)[C@@]3(C)CCC4c5ccccc5CCC4C23)no1 (stereo partly shown) [Compound 110]	33	-4	35	26
COc1ccnc(NC(=O)CC[C@@H]2C/C(=N\O)[C@@]3(C)CCC4c5ccc(Cl)cc5CCC4C23)c1 (stereo partly drawn) [Compound 56, 3-((13S,15R,E)-3-chloro-17-(hydroxyimino)-13-methyl-7,8,9,11,12,13,14,15,16,17-decahydro-6H-cyclopenta[a]phenanthren-15-yl)-N-(4-methoxypyridin-2-yl)propanamide]	63	3	0	334
C[C@]12CCC3c4ccccc4CCC3C1[C@H](CCC(=O)Nc1ccc(F)cn1)C/C2=N\O (stereo partly drawn) [Compound 98, N-(5-fluoropyridin-2-yl)-3-((13S,15R,E)-17-(hydroxyimino)-13-methyl-7,8,9,11,12,13,14,15,16,17-decahydro-6H-cyclopenta[a]phenanthren-15-yl)propanamide]	60	0	4	28
COc1ccc(NC(=O)CC[C@@H]2C/C(=N\O)[C@@]3(C)CCC4c5ccccc5CCC4C23)nc1 (stereo partly shown) [Compound 84]	73	-15	35	35
C[C@]12CCC3c4ccccc4CCC3C1[C@H](CCC(=O)Nc1ccc(N3CCOCC3)cn1)C/C2=N\O (stereo partly drawn) [Compound 90, 3-((13S,15R,E)-17-(hydroxyimino)-13-methyl-7,8,9,11,12,13,14,15,16,17-decahydro-6H-cyclopenta[a]phenanthren-15-yl)-N-(5-morpholinopyridin-2-yl)propanamide]	82	-6	47	83
